Test results reported in US11028086B2, “Pyrido-imidazo rifamycins” (Biofer S.p.A., priority 2017, dated 2021).
Converted amounts (≈) assume the structure as drawn. “And” between values parts separate entries of the source, which are not always exact repeats. Identical values can stand only once. Like-named read-outs stand apart in the source and are kept apart here.

What was measured:
[1] = system: Staphylococcus aureus IM149; assay: MIC by serial dilution, Strain A; type: cell-based; details: range between last concentration with growth and first without growth
Description: (§1) The MICs were calculated using the serial dilution method, and are expressed as the range between the last concentration at which the bacterial strain grows and the first concentration at which the strain tested no longer grows.

[2] = system: Bacillus Subtilis ATCC 6633; assay: MIC by serial dilution, Strain B; type: cell-based; details: ATCC6633, range between last concentration with growth and first without growth
Description: as §1

[3] = system: Escherichia Coli ATCC 25922; assay: MIC by serial dilution, Strain C; type: cell-based; details: ATCC25922, range between last concentration with growth and first without growth
Description: as §1

Escherichia Coli NK12 = assay: MIC by serial dilution, Strain D; type: cell-based; details: COLINK12, range between last concentration with growth and first without growth
Description: as §1

[4] = Pharmacokinetics after intravenous administration in male rats; details: Sprague-Dawley, rat, in vivo, 1 mg/kg
Description: (§2) To 0.250 mL of this solution, 4.750 mL of saline are added, obtaining a final 0.2 mg/mL (5% DMSO, 95% saline) solution. A volume of 5 mL/Kg is administered to 3 rats in each group to have a 1 mg/Kg dose for each of the two products. • Oral Administration of RFX and Derivative 3: the two products were dissolved in DMSO obtaining two solutions having a 60 mg/mL concentration (stock solutions). To 0.5 mL of each solution, 2.0 mL of PEG 400 and 7.5 mL of saline solution were added under stirring, obtaining a stable suspension with a nominal concentration of 3 mg/mL. A volume equal to a 30 mg/kg dose is administered to the animal.
(§3) Male Sprague Dawley rats, weighing between 250 and 300 g, were used in the study. The animals were housed and observed before the experiment according to an approved GMP protocol according to Italian legislation.
(§4) The rats were divided into three groups: • Group 1: i.v. treatment • Group 2: oral treatment for blood sampling • Group 3: oral treatment for urine and stool collection
(§5) Plasma: the calibration curve and the QC samples were prepared in untreated rat plasma, adding 5 μL of each stock solution to 45 μL of untreated rat plasma. The 50 μL of plasma obtained were diluted up to 100 μL with cold acetonitrile containing the Internal Standard (I.S.) at the final concentration of 50 ng/mL, and centrifuged for 5 min. at 9000 rpm at 5° C. The supernatant was transferred to a 96-well plate for analysis. The samples of Groups 1 and 2 were similarly prepared using 50 μL of plasma from the treated rats.
(§6) A non-compartmental analysis was applied, and the following pharmacokinetic parameters were considered for each subject:
(§7) The concentration data were extrapolated using the Analyst™ 6.1 software (Applied Biosystems); the AUCs were calculated using a linear-trapezoidal method, and a weight uniformity was performed as the first approach. The concentration/time graphs were performed after logarithmic transformation of the results using PK Solver 2.0 software, Excel 2007 Microsoft add in.

[5] = Pharmacokinetics after oral administration in male rats; details: Sprague-Dawley, rat, in vivo
Description: as §2, §3, §4, §5, §6, §7

Bifidobacterium = assay: qPCR count of intestinal bacteria in rat stool after 5 days oral treatment; type: in vivo, Sprague Dawley rats; details: for cell count average value Bifidobacterium: group average of cell counts; for Ct Values Bifidobacterium / Cell Count Bifidobacterium: individual rats, listed as RFX; for Ct Values Bifidobacterium: average of three qPCR analyses; for Cell Count Bifidobacterium: derived from Ct values
Description: (§8) The stools were collected at T0 and the day after the last treatment.
(§9) The two products were first dissolved in DMSO at the concentration of 100 mg/mL (stock solution), then to 0.5 mL of each solution 2.0 mL of PEG 400 and 7.5 mL of saline solution were added, under stirring. A stable suspension at the nominal concentration of 5 mg/mL is obtained. A volume of 10 mL/kg, equal to 50 mg/kg, is administered.
(§10) The detection method is based on isolation of the total genomic DNA from each stool sample, using a specific commercial kit. After the quali-quantitative evaluation of the DNA, the same DNA samples were stored at −20° C. Quantitative analyzes were performed using qPCR Real Time with the use of a DNA primer couples specific for Bifidobacterium, Enterococcus, Enterobacter, and Lactobacillus species.
(§11) DNA isolation was performed using the PowerFecal® DNA Isolation Kit (MO BIO Laboratories) commercial kit on a sample of 250 mg stool, each time. After isolation, the DNA samples were evaluated by spectrophotometric analysis. Each DNA sample was quantified in the 60-100 ng/μL range (high in proteins and sugars), as typical for stool-derived DNA.
(§12) Each sample was evaluated three times. For each DNA sample and for each specific DNA primer couple, the analysis provided a CT value that resulted to be correlated to the amount of DNA specific to the bacterial species, therefore closely correlated to the number of bacterial cells of that species present in the stool sample.
(§13) For relative quantification, a “generalized linear mixed model (GLMM) under Poisson-lognormal error” was applied. MCMC.qPCR R package was used to convert CT values into bacterial cell numbers. For the conversion, the formula: Number of cells=E(Ct1−Ct) was used, where E represents the efficiency of amplification, which in the present case assumes the value of 2. Ct1 represents the number of qPCR cycles needed to detect a single target molecule (in this study Ct1 is supposed to have the value of 39).
(§14) The Markov Chain Monte Carlo algorithm (MCMC) was used to estimate the effect of time on the development levels of each microbial genus. The GLMM method was used to verify if the levels of each bacterial genus at T0 and T5 differ. Furthermore, a statistical analysis to evaluate the significance of the differences between the T0 and T5 values was performed.

Enterobacter = assay: as above; type: in vivo, Sprague Dawley rats; details: for cell count average value Enterobacter: group average of cell counts; for Ct Values Enterobacter / Cell Count Enterobacter: individual rats, listed as RFX; for Ct Values Enterobacter: average of three qPCR analyses; for Cell Count Enterobacter: derived from Ct values
Description: as §8, §9, §10, §11, §12, §13, §14

Enterococcus = assay: as above; type: in vivo, Sprague Dawley rats; details: for cell count average value Enterococcus: group average of cell counts; for Ct Values Eterococcus / Cell Count Eterococcus: individual rats, listed as RFX; for Ct Values Eterococcus: average of three qPCR analyses; for Cell Count Eterococcus: derived from Ct values
Description: as §8, §9, §10, §11, §12, §13, §14

Lactobacillus = assay: as above; type: in vivo, Sprague Dawley rats; details: for cell count average value Lactobacillus: group average of cell counts; for Ct Values Lactobacillus / Cell Count Lactobacillus: individual rats, listed as RFX; for Ct Values Lactobacillus: average of three qPCR analyses; for Cell Count Lactobacillus: derived from Ct values
Description: as §8, §9, §10, §11, §12, §13, §14

[6] = cited from earlier work
[7] = T5 (day after 5 days oral 50 mg/kg)
[8] = T5 (day after 5 days oral 50 mg/kg), 50 mg/kg
[9] = oral treatment 5 days, 50 mg/kg, T5 vs T0

With `CO[C@H]1/C=C/O[C@@]2(C)Oc3c(C)c(O)c4c(O)c(c5c(nc6cc(C)ccn65)c4c3C2=O)NC(=O)/C(C)=C\C=C\[C@H](C)[C@H](O)[C@@H](C)[C@@H](O)[C@@H](C)[C@H](OC(C)=O)[C@@H]1C` [Rifaximin, reference compound] the MIC [1] was 0.25 to 0.5 µg/mL (≈ 0.318 to 0.636 µM), the MIC [2] was 0.125 to 0.25 µg/mL (≈ 0.159 to 0.318 µM) and the MIC [3] was 2 to 4 µg/mL (≈ 2.54 to 5.09 µM). The MIC (Escherichia Coli NK12) was 4 to 8 µg/mL (≈ 5.09 to 10.2 µM), the AUC(0-inf) [4] was 1990 ng·h/mL and the AUC(0-t) [4] was 1990 ng·h/mL. It also gave a C0 [4] of 3760 ng/mL, a Cl_obs [4] of 9.8 mL/min/kg and a Cmax [4] of 2880 ng/mL. It also gave an MRT inf [4] of 1.18 h, a Tmax [4] of 5 min and a Vss_obs [4] of 0.757 L/kg. It also gave a half-life [4] of 2.45 h, a bioavailability [5] of 0.4% and an AUC(0-inf) ([5]; po, 30 mg/kg) of 222 ng·h/mL. The AUC(0-t) ([5]; po, 30 mg/kg) was 197 ng·h/mL, the Cmax ([5]; po, 30 mg/kg) was 57.1 ng/mL and the MRT inf ([5]; po, 30 mg/kg) was 9.22 h. The Tmax ([5]; po, 30 mg/kg) was 0.5 h, the half-life ([5]; po, 30 mg/kg) was 9.63 h and the “cell count average value Bifidobacterium” value (Bifidobacterium; T0 (before treatment)) was 6.87 × 10^6. The “Ct Values Bifidobacterium” value (Bifidobacterium; T0 (before treatment)) was 15.880 and 14.080 and 22.166 and 21.412 and 24.420 and 23.158, the “Cell Count Bifidobacterium” value (Bifidobacterium; T0 (before treatment)) was 9.11E+06 cells per mg of stool and 3.17E+07 cells per mg of stool and 1.17E+05 cells per mg of stool and 1.97E+05 cells per mg of stool and 2.45E+04 cells per mg of stool and 5.87E+04 cells per mg of stool and the “cell count average value Bifidobacterium” value (Bifidobacterium; [7]) was 8.26 × 10^6. For the same compound, the “Ct Values Bifidobacterium” value (Bifidobacterium; [8]) was 13.747 and 16.114 and 24.545 and 18.232 and 27.172 and 26.104, the “Cell Count Bifidobacterium” value (Bifidobacterium; [8]) was 4.00E+07 cells per mg of stool and 7.75E+06 cells per mg of stool and 2.25E+04 cells per mg of stool and 1.79E+06 cells per mg of stool and 3.64E+03 cells per mg of stool and 7.62E+03 cells per mg of stool and the “decrease in the bacterial count for the Bifidobacterium genus” value (Bifidobacterium; [9]) was “no significant differences”. The “cell count average value Enterobacter” value (Enterobacter; T0 (before treatment)) was 2.69 × 10^6, the “Ct Values Enterobacter” value (Enterobacter; T0 (before treatment)) was 17.704 and 23.688 and 16.284 and 17.749 and 17.616 and 18.371 and the “Cell Count Enterobacter” value (Enterobacter; T0 (before treatment)) was 2.57E+06 cells per mg of stool and 4.07E+04 cells per mg of stool and 6.89E+06 cells per mg of stool and 2.50E+06 cells per mg of stool and 2.74E+06 cells per mg of stool and 1.62E+06 cells per mg of stool. The “cell count average value Enterobacter” value (Enterobacter; [7]) was 5.98 × 10^5, the “Ct Values Enterobacter” value (Enterobacter; [8]) was 20.143 and 25.467 and 17.828 and 21.542 and 23.096 and 20.066 and the “Cell Count Enterobacter” value (Enterobacter; [8]) was 4.75E+05 cells per mg of stool and 1.19E+04 cells per mg of stool and 2.36E+06 cells per mg of stool and 1.80E+05 cells per mg of stool and 6.13E+04 cells per mg of stool and 5.01E+05 cells per mg of stool. For the same compound, the “drop in cell count for the Enterobacter genus” value (Enterobacter; [9]) was “about 10 times”, the “cell count average value Enterococcus” value (Enterococcus; T0 (before treatment)) was 9.2 × 10^6 and the “Ct Values Eterococcus” value (Enterococcus; T0 (before treatment)) was 23.236 and 22.741 and 14.976 and 16.124 and 18.925 and 14.203. For the same compound, the “Cell Count Eterococcus” value (Enterococcus; T0 (before treatment)) was 5.56E+04 cells per mg of stool and 7.84E+04 cells per mg of stool and 1.71E+07 cells per mg of stool and 7.70E+06 cells per mg of stool and 1.10E+06 cells per mg of stool and 2.91E+07 cells per mg of stool, the “cell count average value Enterococcus” value (Enterococcus; [7]) was 28 × 10^4 and the “Ct Values Eterococcus” value (Enterococcus; [8]) was 23.676 and 24.09 and 24.608 and 23.121 and 25.293 and 26.739. The “Cell Count Eterococcus” value (Enterococcus; [8]) was 4.10E+04 cells per mg of stool and 3.06E+04 cells per mg of stool and .15E+04 cells per mg of stool and 6.03E+04 cells per mg of stool and 1.34E+04 cells per mg of stool and 4.91E+03 cells per mg of stool, the “drop in cell count for the Enterococcus genus” value (Enterococcus; [9]) was “about 100 times” and the “cell count average value Lactobacillus” value (Lactobacillus; T0 (before treatment)) was 1.3 × 10^6. For the same compound, the “Ct Values Lactobacillus” value (Lactobacillus; T0 (before treatment)) was 20.565 and 20.928 and 19.111 and 20.465 and 17.200 and 17.852, the “Cell Count Lactobacillus” value (Lactobacillus; T0 (before treatment)) was 3.55E+05 cells per mg of stool and 2.75E+05 cells per mg of stool and 9.71E+05 cells per mg of stool and 3.80E+05 cells per mg of stool and 3.65E+06 cells per mg of stool and 2.32E+06 cells per mg of stool and the “cell count average value Lactobacillus” value (Lactobacillus; [7]) was 6.6 × 10^5. For the same compound, the “Ct Values Lactobacillus” value (Lactobacillus; [8]) was 20.364 and 19.891 and 18.746 and 19.308 and 19.872 and 20.306, the “Cell Count Lactobacillus” value (Lactobacillus; [8]) was 4.07E+05 cells per mg of stool and 5.65E+05 cells per mg of stool and 1.25E+06 cells per mg of stool and 8.47E+05 cells per mg of stool and 5.73E+05 cells per mg of stool and 4.24E+05 cells per mg of stool and the “change in cell count for the Lactobacillus genus” value (Lactobacillus; [9]) was “no significant differences”. For the same compound, the solubility ([6]; in the presence of 20 mM bile acids) was 72.6% and the solubility ([6]; in water) was 0.6%.
